Values of other authors, collected in patent US20110301091A1, “COMPOSITIONS AND METHODS FOR REDUCING THE SIGNS OF AGING OF THE SKIN” (priority 2008, published 2011).

Experiments:
[1] = tested on: dermal aging; conditions: animal studies; mechanism of reducing oxidative stress and apoptosis
[2] = tested on: type I collagen
[3] = tested on: wrinkle formation; conditions: clinical study
[4] = tested on: photoaged skin; conditions: topical application
[5] = tested on: photoaging; conditions: topical application of folic acid and creatine
[6] = tested on: epigenetic patterns
[7] = tested on: UV-irradiated human fibroblasts
[8] = tested on: laboratory animals
[9] = tested on: UV-induced ceramide production; conditions: free radical scavenger
[10] = tested on: heparan-sulfate PGs (HS-PGs); conditions: organotypical model of corticosteroid atrophic human skin
[11] = tested on: MMP-1; conditions: human keratinocytes; via ERK and AP-1 inhibition
[12] = tested on: skin characteristics; conditions: in vivo

Compound: growth hormone
- dermal aging [1]: slow down dermal aging

Compound: Ziyuglycoside
- expression of type I collagen [2]: increased the expression of type I collagen in a dose-dependent manner
- wrinkle formation [3]: decrease wrinkle formation

Compound: CCCCCCCC(=O)C(CCCCCC)C(=O)NC(CO)CO (stereo not drawn) [K6PC-5]
- skin barrier, fibroblast count and function [4]: improving skin barrier and increasing fibroblast count and function

Compound: Nc1nc2ncc(CNc3ccc(C(=O)N[C@@H](CCC(=O)O)C(=O)O)cc3)nc2c(=O)[nH]1 [folic acid]
- photoaging [5]: improved photoaging

Compound: lunasin
- epigenetic patterns [6]: modify epigenetic patterns

Compound: COc1cc(O)c(C(=O)[C@@H]2[C@H](CC=C(C)C)C(C)=CC[C@H]2c2ccccc2)c(O)c1 [Panduratin A]
- matrix metalloproteinase (MMP) I synthesis [7]: decreased
- type I procollagen synthesis [7]: increased

Compound: Oc1ccc(C=Cc2cc(O)cc(O)c2)cc1 [Resveratrol]
- aging and lifespan [8]: slow down aging and extend the lifespan

Compound: COc1ccc2[nH]cc(CCNC(C)=O)c2c1 [melatonin]
- dermal aging [1]: slow down dermal aging

Compound: CN(CC(=O)O)C(=N)N [creatine]
- photoaging [5]: improved photoaging

Compound: Vitamin E
- UV-induced ceramide production [9]: inhibited

Compound: C-Xyloside
- expression of heparan-sulfate PGs (HS-PGs) [10]: improved expression of heparan-sulfate PGs

Compound: Triphlorethol-A
- MMP-1 inhibition [11]: inhibition of MMP-1

Compound: C[C@]12CC[C@H](O)CC1=CC[C@@H]1[C@@H]2CC[C@]2(C)C(=O)CC[C@@H]12 [Dehydroepiandrosterone (DHEA), Dehydroepiandrosterone]
- effects on skin characteristics [12]: beneficial effects on skin characteristics
